According to paper PMC11986180, “ZIF-8 Selective Dispersive Solid-Phase Extraction-LC-MS/MS Method for the Determination of Aconitine alkaloids in Rat Plasma: Application in Pharmacokinetic Studies” (Journal of Analytical Methods in Chemistry, 2025):
Read-outs that look alike come from different tables or passages of the source.

Assays:
[1] = Pharmacokinetics of aconitine alkaloids in rat plasma after oral administration of Fuzi extract (d-SPE-LC-MS/MS); type: in vivo, Sprague–Dawley rats; conditions: for AUC(0-inf) / AUC(0-t) / half-life / MRT last / MRT inf / Tmax: n = 6, oral (gastric gavage) 10 mg/kg Fuzi extract; for half-life: one-compartment model; for MRT last: read-out: MRT0-t; for MRT inf: read-out: MRT0-∞; for Cmax: oral 10 mg/kg Fuzi extract, read-out: maximum concentrations (Cmax); for Tmax: 10 mg/kg
Description: Male Sprague–Dawley rats (250–300 g, 8–10 weeks old) were procured from Shenzhen Bao'an Authentic TCM Therapy Hospital (Guangzhou, China) and acclimatized in a controlled environment (temperature: 25°C ± 2°C; humidity: 50% ± 5%; 12-h dark–light cycle) for at least 3 days before experimentation (Animal License Number: SCXK [Guangdong] 2022-0002). Laboratory animal compound feed (Guangdong Feeding Certificate: 2019, No. 05,073) was provided. All animal experiments were performed in accordance with the Guide for the Care and Use of Laboratory Animals by the National Institutes of Health. Ethical approval for the animal studies was obtained from the Ethics Committee of Sinopharm Dongfeng General Hospital. The animal protocols used in this study were approved by the Institutional Animal Care and Use Committee of Sinopharm Dongfeng General Hospital.
The crude powder of Fuzi (50 g) was decocted in 500 mL of water for 1 h to obtain the crude extract, which was then concentrated to 100 mL and stored at 4°C.
All rats were maintained under standard conditions with ad libitum access to food and water. They were divided into two groups: Group 1 was used to prepare blank plasma samples, and Group 2 was designated for pharmacokinetic studies. Drug-free rat plasma was collected via suborbital venous hemorrhage. Pharmacokinetic studies involved continuous blood sampling from the suborbital venous plexus, as described previously. Each rat was administered a 10 mg/kg dose of Fuzi extract via gastric gavage. Blood samples (200 μL) were collected at […] time points (0, 0.25, 0.50, 0.75, 1.0, 2.0, 3.0, 4.0, 6.0, 8.0, 10, 12, and 24 h postadministration) for pharmacokinetic analysis. The samples were collected into microtubes containing 5 μL of heparin, followed by centrifugation at 4000 rpm for 10 min. The resulting plasma ([…]) was separated and immediately frozen at −20°C for further analysis. Figure 2 illustrates the typical d-SPE–LC/MS profile of blank plasma and aconitine alkaloids, showing distinct peaks in rat plasma at 1 h postadministration without interference from endogenous peaks, thus maintaining a stable baseline for analyte and IS detection.
Before solid-phase extraction, ZIF-8 was activated by placing it in a vacuum-drying oven at 60°C for 24 h to remove surface-adsorbed water and other volatile substances. Rat plasma (100 μL) was combined with 350 μL of a 50% acetonitrile–water solution and 50 μL of yohimbine (IS). Following this, 15 mg of ZIF-8 was added to the mixture, which was then shaken for 18 min for extraction. After centrifugation, the adsorbent remained in the tube while the supernatant was discarded. Subsequently, 1000 μL of methanol was added to the tube, and ultrasonic elution of the nanocomposite was performed for 5 min. After centrifugation to collect the ZIF-8 nanocomposites, 900 μL of the eluent was evaporated using N2 flow at 40°C. The resulting residue was redissolved in 50 μL of methanol to obtain the final sample solution and analyzed by HPLC–MS/MS. The extraction process for aconitine alkaloids is depicted in Figure 3.
The pharmacokinetic parameters of aconitine alkaloids in rats were calculated using Phoenix WinNonlin 8.3 software. The maximum plasma concentration (Cmax) and the time to reach Cmax (Tmax) were directly derived from the experimental data. The elimination rate constant (Ke) was determined by linear regression of the terminal semilogarithmic plot of plasma concentration versus time, and the elimination half-life (t1/2) was calculated as 0.693/Ke. All data are presented as mean ± standard deviation.
The plasma concentrations of five aconitine alkaloid species from Fuzi were quantified using the present method. The peak plasma concentrations of aconitine, hypaconitine, mesaconitine, lappaconitine, and benzoylaconitine were reached within 0.75 h, indicating rapid absorption into the systemic circulation. […]

[2] = type: physicochemical, rat
Description: Aconitine, hypaconitine, mesaconitine, lappaconitine, benzoylaconitine, and yohimbine were individually dissolved in 10 mL of methanol to prepare the stock solution. These compounds were subsequently diluted with methanol to achieve final concentrations of 10 and 5.0 μg/mL to prepare the working standard solutions, which were stored at 4°C before use. Under the optimized conditions, 10 μL of the working standard solution and IS (5.0 μg/mL), along with 15 mg of ZIF-8, was added to 200 μL of blank rat plasma and various blank tissue homogenates. The final concentrations of the calibration standard samples were 0.3125, 0.625, 1.5625, 3.125, 6.25, 12.5, 25, 50, 100, 500, and 1000 ng/mL. Plasma quality control (QC) samples were prepared at concentrations of 0.625, 6.25, 10, and 50 ng/mL. Standard calibration samples and HPLC–MS samples were stored at −20°C until analysis.
Stability tests were conducted to replicate real-world conditions that samples are likely to encounter. […]

[3] = male, Sprague-Dawley, rat, plasma, po, read-out: Tmax
[4] = Automatic (24 h), plasma QC 6.25 ng/mL
[5] = Automatic (24 h), plasma QC 50 ng/mL
[6] = Freeze (−80°C for 30 d), plasma QC 6.25 ng/mL
[7] = Freeze (−80°C for 30 d), plasma QC 50 ng/mL
[8] = Freeze-thaw (three times), plasma QC 6.25 ng/mL
[9] = Freeze-thaw (three times), plasma QC 50 ng/mL
[10] = Room temperature (8 h), plasma QC 6.25 ng/mL
[11] = Room temperature (8 h), plasma QC 50 ng/mL

Row | SMILES | AUC(0-inf) ([1]; male, Sprague-Dawley) [ng·h/mL] | AUC(0-t) ([1]; male, Sprague-Dawley) [ng·h/mL] | half-life ([1]; male, Sprague-Dawley) [h] | MRT last ([1]; male, Sprague-Dawley) [h] | MRT inf ([1]; male, Sprague-Dawley) [h] | Cmax ([1]; male, Sprague-Dawley) [ng/mL] | Tmax [1, 3] [h] | Tmax [1] [h] | Stability RE % [2, 4] [%] | Stability RE % [2, 5] [%] | Stability RE % [2, 6] [%] | Stability RE % [2, 7] [%] | Stability RE % [2, 8] [%] | Stability RE % [2, 9] [%] | Stability RE % [2, 10] [%] | Stability RE % [2, 11] [%] | further results
1 | CCN1C[C@]2(COC)[C@H](O)C[C@H](OC)[C@@]34[C@@H]5C[C@@]6(O)[C@H](OC(=O)c7ccccc7)[C@@H]5[C@@](OC(C)=O)([C@@H]([C@H](OC)[C@H]23)[C@@H]14)[C@@H](O)[C@@H]6OC [Aconitine] | 26.9 ± 0.696 | 25.3 ± 0.566 | 5.77 ± 0.348 | 7.11 ± 0.143 | 8.59 ± 0.349 | 7.47 ± 0.732 | ≤ 0.75 | 0.5 | 4.19 | −10.01 | 4.94 | −9.37 | 3.96 | −8.46 | −1.08 | −8.69 | –
2 | CCN1CC2(COC)C(O)CC(OC)C34C5CC6(O)C(OC)C(O)C(O)(C5C6OC(=O)c5ccccc5)C(C(OC)C23)C14 (stereo not shown) [Benzoylaconitine] | 14.1 ± 9.31 | 3.76 ± 0.0401 | 62.4 ± 57.4 | 9.95 ± 0.374 | 87.9 ± 79.7 | 0.939 ± 0.199 | – | 0.25 | −8.67 | −9.65 | −7.70 | −10.48 | −6.91 | −10.57 | −7.89 | −7.98 | –
3 | COC[C@@]12CC[C@H](OC)[C@]34C(C([C@H](OC)[C@H]13)[C@]1(OC(C)=O)[C@H]3[C@@H](OC(=O)c5ccccc5)[C@](O)(C[C@H]34)[C@@H](OC)[C@@H]1O)N(C)C2 [Hypaconitine] | 80.5 ± 2.91 | 47.3 ± 1.33 | 21.2 ± 0.505 | 8.627 ± 0.0519 | 27.6 ± 0.562 | 9.92 ± 0.33 | ≤ 0.75 | 0.5 | −8.00 | 1.32 | −3.27 | −2.50 | 0.31 | 3.47 | −7.92 | −7.90 | –
4 | CCN1CC2(OC(=O)c3ccccc3NC(C)=O)CCC(OC)C34C1C(CC23)C1(O)CC(OC)C2CC4C1(O)C2OC (stereo not shown) [Lappaconitine] | 2.421 ± 0.0223 | 2.4 ± 0.0276 | 3.83 ± 0.791 | 4.47 ± 0.0814 | 4.71 ± 0.206 | 1.28 ± 0.121 | ≤ 0.75 | 0.5 | – | – | – | – | – | – | – | – | Stability RE % ([2]; Automatic (24 h), plasma QC 3.125 ng/mL): −0.82%; Stability RE % ([2]; Automatic (24 h), plasma QC 25 ng/mL): −7.41%; Stability RE % ([2]; Freeze (−80°C for 30 d), plasma QC 3.125 ng/mL): −0.68%; Stability RE % ([2]; Freeze (−80°C for 30 d), plasma QC 25 ng/mL): −9.65%; Stability RE % ([2]; Freeze-thaw (three times), plasma QC 3.125 ng/mL): −2.04%; Stability RE % ([2]; Freeze-thaw (three times), plasma QC 25 ng/mL): −10.40%; Stability RE % ([2]; Room temperature (8 h), plasma QC 3.125 ng/mL): −0.52%; Stability RE % ([2]; Room temperature (8 h), plasma QC 25 ng/mL): −6.67%
5 | COCC12CN(C)C3C4C(OC)C1C3(C(OC)CC2O)C1CC2(O)C(OC)C(O)C4(OC(C)=O)C1C2OC(=O)c1ccccc1 (stereo not shown) [Mesaconitine] | 8.11 ± 0.46 | 7.7 ± 0.411 | 5.35 ± 0.562 | 5.69 ± 0.188 | 7.03 ± 0.479 | 1.71 ± 0.0446 | ≤ 0.75 | 0.75 | −9.09 | −9.89 | −7.23 | −9.46 | −1.29 | −7.50 | 0.97 | −12.74 | –
